US4442090A, “Absorption-promoting compounds, compositions thereof with pharmaceuticals and/or bases for rectal administration and method of use” (Kyoto Yakuhin Kogyo Kabushiki Kaisha, priority 1980, dated 1984)
Several values for one entry are separate records, joined by “and”; a condition that tells them apart may be missing. Equal entries are not always repeated. One block for each compound: values may come before it.

How the values were obtained:
[1] = Urinary excretions of aminoglycoside antibiotics after rectal suppository (rabbit); settings: Compound (I) 5%, Witepsol H-15
Method: The thus-obtained suppositories were administered to rabbits and the urinary excretions of the pharmacologically-active substance were determined.
(§1) Each rectal suppository was administered to a depth of 2 cm from the anus of a rabbit fasted 24 hours.
(§2) To measure the urinary excretions, urine samples were collected after administration at timed intervals, diluted and assayed by the biological assay procedure.
Thus, Bacillus subtilis was used as assay organism and the assays were performed by the cylinder plate method (cultivation at 37° C. for 15 to 20 hours).

[2] = Urinary excretions of AB-PC after administration of AB-PC rectal suppository (human); assay type: in vivo; settings: AB-PC 125 mg (potency); for Urinary excretions of AB-PC (%) (0-6 hr.): Witepsol H-15, % of dose
Method: The thus-obtained suppositories were administered to healthy adult male humans from the anus, and the urinary excretions of AB-PC were determined.

[3] = Urinary excretions of peptide drugs after rectal suppository (rabbit); settings: Colistin Sodium Methanesulfonate 150,000 IU, Compound (I) 5%, Witepsol H-15
Method: The thus-obtained suppositories were administered to rabbits from the anus, and the urinary excretions of the pharmacologically-active substance were determined.
as §1, §2
Thus, Escherichia coli was used as assay organism and the assays were performed by the cylinder plate method (cultivation at 37° C. for 15 to 20 hours).

[4] = Urinary excretions of β-lactam antibiotics after rectal suppository (rabbit); assay type: in vivo; settings: Compound (I) 5%, Witepsol H-15
Method: The absorption into the circulation through the rectum of the rectal suppositories thus prepared was determined by measuring urinary excretion of the pharmacologically-active substance.
Thus, Sarcina lutea and Bacillus subtilis were used as assay organisms for penicillins and cephalosporins, respectively, and the assays were performed by the paper disk method (cultivation at 37° C. for from 15 to 20 hours).

[5] = Blood glucose level after rectal insulin administration (rabbit); assay type: in vivo; settings: rectal suppository, Insulin 6 I. U., Compound (I) 5%; for Blood glucose level 0 hr.: Witepsol H-15, baseline, level at hour 0 considered 100%; for Blood glucose level 0.5 hr. / Blood glucose level 0.75 hr. / Blood glucose level 2.0 hr. / Blood glucose level […]. / Blood glucose level 1.0 hr.: Witepsol H-15, relative to hour 0 = 100%
From the text: To measure glucose levels, blood samples were taken from the auricular vein at timed intervals and assayed by the glucose oxidase method.
The urinary excretion values in Tables 1 to 5 are percentages based on the dose administered. The blood glucose levels in Table 6 are relative blood glucose levels when the blood glucose level at hour 0 is considered to be 100%.

[6] = Gentamicin sulfate 125 mg (potency)
[7] = Dibekacin sulfate 125 mg (potency)
[8] = Fortimicin sulfate 125 mg (potency)
[9] = Compound (I) 10%, Witepsol H-15, Table 3
[10] = Kanamycin sulfate 125 mg (potency)

SMILES: O=C(O)CCCCCCCCCCC(=O)O [Compound 2-Na, 1,10-Decamethylenedicarboxylic acid]
Urinary excretions (%) 0-2 hr. [1, 6]: 41.2%
Urinary excretions (%) 2-4 hr. [1, 6]: 9.9%
Urinary excretions (%) 4-6 hr. [1, 6]: 3.1%
Urinary excretions (%) Total (0-6 hr.) [1, 6]: 53.2%
Urinary excretions of AB-PC (%) (0-6 hr.) ([2]; added compound 10%): 25.6%
Urinary excretions (%) 0-2 hr. [3]: 20.5%
Urinary excretions (%) 2-4 hr. [3]: 9.2%
Urinary excretions (%) 4-6 hr. [3]: 1.8%
Urinary excretions (%) Total (0-6 hr.) [3]: 31.5%
Urinary excretions (%) 0-2 hr. ([4]; Cefazolin 125 mg (potency)): 41.5%
Urinary excretions (%) 2-4 hr. ([4]; Cefazolin 125 mg (potency)): 16.9%
Urinary excretions (%) 4-6 hr. ([4]; Cefazolin 125 mg (potency)): 3.5%
Urinary excretions (%) Total (0-6 hr.) ([4]; Cefazolin 125 mg (potency)): 61.9%
Blood glucose level 0 hr. [5]: 100%
Blood glucose level 0.5 hr. [5]: 57.0%
Blood glucose level 0.75 hr. [5]: 50.5%
Blood glucose level 2.0 hr. [5]: 98.5%
Blood glucose level […]. [5]: 68.5%

SMILES: O=C(O)CCCCCCCCCCCC(=O)O [Compound 5-Na, 1,11-Undecamethylene dicarboxylic acid]
Urinary excretions (%) 0-2 hr. [1, 7]: 41.1%
Urinary excretions (%) 2-4 hr. [1, 7]: 8.8%
Urinary excretions (%) 4-6 hr. [1, 7]: 1.1%
Urinary excretions (%) Total (0-6 hr.) [1, 7]: 51.0%
Urinary excretions of AB-PC (%) (0-6 hr.) ([2]; Compound (I) 1%): 30.8%
Urinary excretions (%) 0-2 hr. ([4]; Cefotiam 125 mg (potency)): 40.0%
Urinary excretions (%) 2-4 hr. ([4]; Cefotiam 125 mg (potency)): 8.0%
Urinary excretions (%) 4-6 hr. ([4]; Cefotiam 125 mg (potency)): 2.1%
Urinary excretions (%) Total (0-6 hr.) ([4]; Cefotiam 125 mg (potency)): 60.1%
Blood glucose level 0 hr. [5]: 100%
Blood glucose level 0.5 hr. [5]: 60.0%
Blood glucose level 0.75 hr. [5]: 51.7%
Blood glucose level 1.0 hr. [5]: 55.2%
Blood glucose level 2.0 hr. [5]: 110.3%
Blood glucose level […]. [5]: 80.5%

SMILES: CCCCOc1ccc(C(=O)O)cc1 [Compound 3-Na, p-Butoxybenzoic acid]
Urinary excretions (%) 0-2 hr. [1, 10]: 45.1%
Urinary excretions (%) 4-6 hr. [1, 10]: 2.6%
Urinary excretions (%) Total (0-6 hr.) [1, 10]: 59.8%
Urinary excretions of AB-PC (%) (0-6 hr.) ([2]; added compound 10%): 20.9%
Urinary excretions (%) 0-2 hr. ([4]; Cefmetazole 125 mg (potency)): 45.0%
Urinary excretions (%) 2-4 hr. ([4]; Cefmetazole 125 mg (potency)): 20.0%
Urinary excretions (%) 4-6 hr. ([4]; Cefmetazole 125 mg (potency)): 1.5%
Urinary excretions (%) Total (0-6 hr.) ([4]; Cefmetazole 125 mg (potency)): 66.5%
Urinary excretions (%) 0-2 hr. ([4]; FK-749 125 mg (potency)): 41.6%
Urinary excretions (%) 2-4 hr. ([4]; FK-749 125 mg (potency)): 19.2%
Urinary excretions (%) 4-6 hr. ([4]; FK-749 125 mg (potency)): 3.0%
Urinary excretions (%) Total (0-6 hr.) ([4]; FK-749 125 mg (potency)): 63.8%
Blood glucose level 0 hr. [5]: 100%
Blood glucose level 0.5 hr. [5]: 60.0%
Blood glucose level 1.0 hr. [5]: 50.5%
Blood glucose level 2.0 hr. [5]: 103.3%
Blood glucose level […]. [5]: 79.5%

Now from value to compound, other results behind:

Urinary excretions (%) 0-2 hr. ([4]; 6059-S 125 mg (potency)): 47.2%
Urinary excretions (%) 2-4 hr. ([4]; 6059-S 125 mg (potency)): 8.6%
Urinary excretions (%) 4-6 hr. ([4]; 6059-S 125 mg (potency)): 2.0%
Urinary excretions (%) Total (0-6 hr.) ([4]; 6059-S 125 mg (potency)): 57.8%
SMILES: CCCC(=O)NC(C(=O)O)c1ccccc1 (racemic) [Compound 29-Na, N--Butyryl-DL-phenylglycine]
Blood glucose level 0 hr. [5]: 100%
Blood glucose level 0.5 hr. [5]: 60.0%
Blood glucose level 0.75 hr. [5]: 50.6%
Blood glucose level 1.0 hr. [5]: 55.0%
Blood glucose level 2.0 hr. [5]: 111.3%
Blood glucose level […]. [5]: 81.2%

Urinary excretions (%) 0-2 hr. [1, 8]: 46.0%
Urinary excretions (%) 2-4 hr. [1, 8]: 8.0%
Urinary excretions (%) 4-6 hr. [1, 8]: 2.0%
Urinary excretions (%) Total (0-6 hr.) [1, 8]: 56.0%
Urinary excretions (%) 0-2 hr. [1, 6]: 45.0%
Urinary excretions (%) 2-4 hr. [1, 6]: 6.0%
Urinary excretions (%) 4-6 hr. [1, 6]: 1.5%
Urinary excretions (%) Total (0-6 hr.) [1, 6]: 52.5%
Urinary excretions (%) 0-2 (hr.) [2, 9]: 24.0%
Urinary excretions (%) 2-4 (hr.) [2, 9]: 3.0%
Urinary excretions (%) 4-6 (hr.) [2, 9]: 1.2%
Urinary excretions (%) Total (0-6 hr.) [2, 9]: 28.2%
Urinary excretions (%) 0-2 hr. [3]: 21.2% and 18.5%
Urinary excretions (%) 2-4 hr. [3]: 10.0% and 8.0%
Urinary excretions (%) 4-6 hr. [3]: 1.2% and 0.8%
Urinary excretions (%) Total (0-6 hr.) [3]: 32.4% and 27.3%
SMILES: CCCCCCCC(=O)N[C@@H](Cc1ccccc1)C(=O)O [Compound 23-Na, N--Capryloyl-L-phenylalanine]
Blood glucose level 0 hr. [5]: 100%
Blood glucose level 0.5 hr. [5]: 59.0%
Blood glucose level 2.0 hr. [5]: 103.0%
Blood glucose level […]. [5]: 69.5%
